Assay [1] relates to fibrinolytic activity. Put plainly: Fibrinolytic inhibition, potency relative to dibromopropamidine. The conditions noted are these: for Relative Potency: relative to dibromopropamidine, reciprocal of the concentration producing inhibition equivalent to dibromopropamidine. The class given is biochemical. An excerpt:
The numerical values are expressed as a reciprocal of the concentration of the drug producing the equivalent inhibition to the dibromopropamidine. Where no values for relative potency are listed such values have not been specifically determined.

Assay [2] concerns IUD associated uterine hemmorhage. The conditions noted are these: systemic (oral) intake; cited from earlier work.
Assay [3] deals with fibrinolytic activity. The conditions noted are these: over a prolonged period of time inside the uterus; cited from earlier work.

`N=C(N)c1ccc(OCCCOc2ccc(C(=N)N)cc2Br)c(Br)c1` [Dibromopropamidine]: in the assay on fibrinolytic activity [1], the “Relative Potency” value is 1.0.
For `N=C(N)Nc1ccc(C(=O)Oc2ccc([N+](=O)[O-])cc2)cc1` [NPG3, p-nitrophenyl-p'-guanidinobenzoate], in the assay on fibrinolytic activity [1] (on a molar concentration basis), the “anti-fibrinolytic effect greater than that of dibromopropamidine” value is reported as around 100 times.
Turning to `NC[C@H]1CC[C@H](C(=O)O)CC1` [tranexamic acid], the “IUD associated uterine hemmorhage” value in assay [2] was “alleviated”. Also, in the assay on fibrinolytic activity [3], the “inhibitor concentration required to be effective” value was 0.0001 mol/L.
`N=C(N)c1ccc(OCCCCCOc2ccc(C(=N)N)cc2)cc1` [Pentamidine]: the “Relative Potency” value in the assay on fibrinolytic activity [1] was determined as 2.4.
In the case of `NCCCCCC(=O)O` [EACA, epsilon aminocaproic acid], the “IUD associated uterine hemmorhage” value in assay [2] was “alleviated”. Besides, the “inhibitor concentration required to be effective” value with fibrinolytic activity [3] is 0.001 mol/L.
For the molecule `N=C(N)c1ccc(OCCCCCCCOc2ccc(C(=N)N)cc2)cc1` [Heptamidine], the “Relative Potency” value with fibrinolytic activity [1] was 1.9.
Still for that read-out and setting: then `N=C(N)c1ccc(OCCCCCCOc2ccc(C(=N)N)cc2I)c(I)c1` [Diiodohexamidine], with 7.5; and `N=C(N)c1ccc(OCCCCCOc2ccc(C(=N)N)cc2Br)c(Br)c1` [Dibromopentamidine], with 3.6.
The same measure, in the same setting: then `N=C(N)c1ccc(Oc2ccc(C(=N)N)cc2)cc1` [Phenamidine], with 0.2; and `N=C(N)c1ccc(OCCCCCCOc2ccc(C(=N)N)cc2)cc1` [Hexamidine], with 1.6; and `N=C(N)c1ccc(OCCCOc2ccc(C(=N)N)cc2)cc1` [Propamidine], with 1.2.
On the same count and under the same terms, next, `N=C(N)c1ccc(OCCCCCCCCOc2ccc(C(=N)N)cc2)cc1` [Octamidine]: 2.6.
Regarding `N=C(N)c1ccc(OCCCCCCOc2ccc(C(=N)N)cc2Cl)c(Cl)c1` [Dichlorohexamidine], in the assay on fibrinolytic activity [1], the “Relative Potency” value is 1.9.
The same measure, in the same setting: then `N=C(N)c1ccc(OCCCCCOc2ccc(C(=N)N)cc2I)c(I)c1` [Diiodopentamidine], with 6.8; and `N=C(N)c1cccc(OCCCCCOc2cccc(C(=N)N)c2)c1` [m-Pentamidine], with 0.6.
The same measure, in the same setting: then `N=C(N)c1ccc(OCCCCCCOc2ccc(C(=N)N)cc2I)cc1` [Monoiodohexamidine], with 4.4.
